We go through 34 compounds from patent US8158657B2, “Heterocycles substituted pyridine derivatives and antifungal agent containing thereof” (Eisai R&D Management Co., Ltd., priority 2005, dated 2012).

In brackets after ≈: the same amount, converted by molar mass.

The test system of assay [1] is C. albicans CAF2-1 strain. Description: Anti-Candida activity, MIC measurement. The class given is cell-based. The note with it: CAF21STRAIN, C. albicans CAF2-1, RPMI1640, 42-48 hours at 35° C., visual inspection, read-out: Anti-Candida Activity (minimum inhibitory concentration, MIC). How it is done:
(§1) For the C. albicans CAF2-1 strain, a fungal suspension from a standing culture for 48 hours at 30° C. in a Sabouraud dextrose liquid culture medium (SDB) was diluted with RPMI1640 medium to adjust a fungal suspension of 1.2×10^3 cells/mL. For the A. fumigatus Tsukuba strain, −80° C. stored strain was diluted with RPMI1640 medium to adjust to a fungal suspension of 4.5×10^3 cells/mL.
(§2) Using a U-bottomed 96 well plate, 8 samples/plate (A to H) of sample dilution solutions were prepared. On the 2nd to 12th rows were dispensed 10 μL of dimethyl sulfoxide solution. Weighted sample was dissolved in dimethyl sulfoxide to prepare a 2.5 mg/mL solution, 20 μL of this solution was added to the first row of the prepared plate, and 12 steps of two-fold step dilutions (10 μL of solution+10 μL of dimethyl sulfoxide solution) were performed on the plate. This sample dilution solution was dispensed in the amount of 1 μL to a flat-bottomed 96 well plate for MIC measurement to prepare a sample dilution plate.
(§3) The fungal suspension prepared in (1) was used in the amount of 99 μL/well to inoculate the flat-bottomed 96 well plate containing 1 μL/well of the test compound dilution prepared in (2), and a standing culture was carried out aerobically for 42-48 hours at 35° C.

Assay [2] concerns A. fumigatus Tsukuba strain. Description: Anti-Aspergillus activity, MIC measurement. The note with it: RPMI1640, 42-48 hours at 35° C., visual inspection, read-out: Anti-Aspergillus Activity (minimum inhibitory concentration, MIC). It is filed as cell-based. On the procedure:
as §1, §2, §3

As to `Nc1nc(NCCO)ccc1-c1cc(Cc2ccc(OCc3ccccc3)nc2)no1` [Example 225, 2-(6-Amino-5-(3-(6-benzyloxy-pyridin-3-ylmethyl)-isoxazol-5-yl)-pyridin-2-ylamino)-ethanol], the MIC in assay [1] was found to be 0.78 µg/mL (≈ 1.87 µM); in assay [2], 3.13 µg/mL (≈ 7.5 µM).
For `CCCCOc1ccc(Cc2cc(-c3cccnc3N)on2)cc1` [Example 67, 3-(3-(4-Butoxy-benzyl)-isoxazol-5-yl)-pyridin-2-ylamine], in that order: 1.56 µg/mL (≈ 4.82 µM) and 0.78 µg/mL (≈ 2.41 µM).
In the case of `Nc1ncccc1-c1cc(Cc2ccc(Oc3ccccc3F)nc2)no1` [Example 74, 3-(3-(6-(2-Fluoro-phenoxy)-pyridin-3-ylmethyl)-isoxazol-5-yl)-pyridin-2-ylamin], the MIC in assay [1] stood at 0.1 µg/mL (≈ 0.276 µM); in assay [2] it was 0.2 µg/mL (≈ 0.552 µM).
For `Nc1ccc(-c2cc(Cc3ccc(Oc4ccccc4)nc3)no2)cn1` [Example 181, 5-(3-(6-Phenoxy-pyridin-3-ylmethyl)-isoxazol-5-yl)-pyridin-2-ylamine], in that order: 1.56 µg/mL (≈ 4.53 µM) and 0.39 µg/mL (≈ 1.13 µM).
The corresponding values for `Nc1ncccc1-c1cnn(Cc2ccc(OCc3ccccc3)nc2)c1` [Example 191, 3-(1-(6-Benzyloxy-pyridin-3-ylmethyl)-1H-pyrazol-4-yl)-pyridin-2-ylamine] are 0.2 µg/mL (≈ 0.56 µM) and 0.39 µg/mL (≈ 1.09 µM).
Take `CN(C)c1ncccc1-c1cc(Cc2ccc(OCc3ccccc3)cc2)no1` [Example 228, (3-(3-(4-Benzyloxy-benzyl)-isoxazol-5-yl)-pyridin-2-yl)-dimethyl-amine]: the MIC in assay [1] and in assay [2] was 0.78 µg/mL (≈ 2.02 µM) in each case.
For `Nc1ccc(-c2cc(Cc3ccc(Oc4ccccc4F)nc3)no2)cn1` [Example 185, 5-(3-(6-(2-Fluoro-phenoxy)-pyridin-3-ylmethyl)-isoxazol-5-yl)-pyridin-2-ylamine], the MIC in assay [1] and in assay [2] was 0.78 µg/mL (≈ 2.15 µM) in each case.
With `Nc1ncccc1-c1cc(Cc2ccc(OCc3ccccn3)cc2)on1` [Example 189, 3-(5-(4-(Pyridin-2-ylmethoxy)-benzyl)-isoxazol-3-yl)-pyridin-2-ylamine], the values for the MIC in assay [1] and in assay [2] were 0.05 µg/mL (≈ 0.14 µM) and 0.2 µg/mL (≈ 0.558 µM), respectively.
For the compound `Nc1ccc(-c2cc(Cc3ccc(OCc4ccncc4)cc3)no2)cn1` [Example 180], the MIC in assay [1] was 0.39 µg/mL (≈ 1.09 µM); in assay [2], 1.56 µg/mL (≈ 4.35 µM).
Turning to `Nc1ncccc1-c1cc(Cc2ccc(Oc3cccnc3)nc2)no1` [Example 100, 3-(3-(6-(Pyridin-3-yloxy)-pyridin-3-ylmethyl)-isoxazol-5-yl)-pyrindin-2-ylamine], the MIC in assay [1] was determined as 3.13 µg/mL (≈ 9.06 µM); in assay [2], 6.25 µg/mL (≈ 18.1 µM).
For the compound `Nc1ncccc1-c1cc(Cc2ccn(Cc3ccccc3)c2)no1` [Example 57, 3-(3-(1-Benzyl-1H-pyrrol-3-ylmethyl)-isoxazol-5-yl)-pyridin-2-ylamine], the MIC in assay [1] came to 0.05 µg/mL (≈ 0.151 µM); in assay [2], 0.2 µg/mL (≈ 0.605 µM).
On to `COCc1ccc(-c2cc(Cc3ccc(OCc4ccccc4)cc3)no2)c(N)n1` [Example 26, 3-(3-(4-Benzyloxy-benzyl)-isoxazol-5-yl)-6-methoxymethyl-pyridin-2-ylamine], for which the MIC in assay [1] and in assay [2] was 0.78 µg/mL (≈ 1.94 µM) in each case.
`Nc1ncccc1-c1cc(Cc2ccc(Oc3cccc(F)c3)cc2)no1` [Example 81, 3-(3-(4-(3-Fluoro-phenoxy)-benzyl)-isoxazol-5-yl)-pyridin-2-ylamine]: the MIC in assay [1] turned out to be 0.2 µg/mL (≈ 0.553 µM); in assay [2] it was 0.39 µg/mL (≈ 1.08 µM).
As for `Nc1nc(CO)ccc1-c1cc(Cc2ccc(OCc3ccccc3)cc2)no1` [Example 169], the MIC in assay [1] and in assay [2] was 0.39 µg/mL (≈ 1.01 µM) in each case.
As to `Nc1ncccc1-c1cc(Cc2ccc(CCC3CCCO3)cc2)no1` (centres unmarked) [Example 82, 3-(3-(4-(2-(Tetrahydrofuran-2-yl)-ethyl)-benzyl)-isoxazol-5-yl)-pyridin-2-ylamine], the figures for the MIC in assay [1] and in assay [2] were 0.2 µg/mL (≈ 0.572 µM) and 0.39 µg/mL (≈ 1.12 µM), respectively.
The corresponding values for `Nc1ncc(F)cc1-c1cc(Cc2ccc(OCc3cc(Cl)ccn3)cc2)no1` [Example 175, 3-(3-(4-(4-Chloro-pyridin-2-ylmethoxy)-benzyl)-isoxazol-5-yl)-5-fluoro-pyridin-2-ylamine] are 0.78 µg/mL (≈ 1.9 µM) and 1.56 µg/mL (≈ 3.8 µM).
Regarding `Nc1ncccc1-c1cc(Cc2ccc(OCc3ccc(F)c(F)c3)nc2)no1` [Example 89, 3-(3-(6-(3,4-Difluoro-benzyloxy)-pyridin-3-ylmethyl)-isoxazol-5-yl)-pyridin-2-ylamine], the MIC in assay [1] is 0.39 µg/mL (≈ 0.989 µM); in assay [2], 0.2 µg/mL (≈ 0.507 µM).
Regarding `Nc1ccc(-c2cc(Cc3ccc(OCc4ccccn4)c(F)c3)no2)c(N)n1` [Example 150, 3-(3-(3-Fluoro-4-(pyridin-2-ylmethoxy)-benzyl)-isoxazol-5-yl)-pyridin-2,6-diamine], the MIC in assay [1] worked out at 0.39 µg/mL (≈ 0.996 µM); in assay [2], 0.78 µg/mL (≈ 1.99 µM).
For `Nc1ncccc1-c1cc(Cc2ccc(CSc3ccccc3)cc2)no1` [Example 206], in that order: 0.1 µg/mL (≈ 0.268 µM) and 0.39 µg/mL (≈ 1.04 µM).
The corresponding values for `CCOCc1ccc(Cn2cc(-c3cccnc3N)cn2)cc1` [Example 196, 3-(1-(4-Ethoxymethyl-benzyl)-1H-pyrazol-4-yl)-pyridin-2-ylamine] are 6.25 µg/mL (≈ 20.3 µM) and 6.25 µg/mL (≈ 20.3 µM).
The corresponding values for `COc1cccc(COc2ccc(Cc3cc(-c4ccc(N)nc4N)on3)cc2)n1` [Example 163, 3-(3-(4-(6-Methoxy-pyridin-2-ylmethoxy)-benzyl)-isoxazol-5-yl)-pyridin-2,6-diamine] are 3.13 µg/mL (≈ 7.76 µM) and 1.56 µg/mL (≈ 3.87 µM).
In the case of `Nc1ccc(-c2cc(Cc3ccc(Oc4cccnc4)nc3)no2)c(N)n1` [Example 164, 3-(3-(6-(Pyridin-3-yloxy)-pyridin-3-ylmethyl)-isoxazol-5-yl)-pyridin-2,6-diamine], the MIC in assay [1] and in assay [2] was 6.25 µg/mL (≈ 17.3 µM) in each case.
For the compound `Nc1ccc(-c2cc(Cc3ccc(Oc4cccnc4)cc3)no2)c(N)n1` [Example 138, 3-(3-(4-(Pyridin-3-yloxy)-benzyl)-isoxazol-5-yl)-pyridin-2,6-diamine], the MIC in assay [1] and in assay [2] was 0.78 µg/mL (≈ 2.17 µM) in each case.
For the compound `COc1cccc(COc2ccc(Cc3cc(-c4ccc(N)nc4N)on3)cc2)c1` [Example 162, 3-(3-(4-(3-Methoxy-benzyloxy)-benzyl)-isoxazol-5-yl)-pyridin-2,6-diamine], the results for the MIC in assay [1] and in assay [2] were 0.78 µg/mL (≈ 1.94 µM) and 0.39 µg/mL (≈ 0.969 µM), respectively.
The corresponding values for `Cc1ccc(OCc2ccc(Cc3cc(-c4cccnc4N)on3)cc2)nc1` [Example 44, 3-(3-(4-(5-Methyl-pyridin-2-yloxymethyl)-benzyl)-isoxazol-5-yl)-pyridin-2-ylamine] are 1.56 µg/mL (≈ 4.19 µM) and 1.56 µg/mL (≈ 4.19 µM).
The corresponding values for `Nc1ccc(-c2cc(Cc3ccc(COc4ccc(F)cc4)nc3)no2)c(N)n1` [Example 132, 3-(3-(6-(4-Fluoro-phenoxymethyl)-pyridin-3-ylmethyl)-isoxazol-5-yl)pyridin-2,6-diamine] are 3.13 µg/mL (≈ 8 µM) and 3.13 µg/mL (≈ 8 µM).
For `Nc1ccc(-c2cnn(Cc3ccc(OCc4ccccc4)nc3)c2)c(N)n1` [Example 198, 3-(1-(6-Benzyloxy-pyridin-3-ylmethyl)-1H-pyrazol-4-yl)-pyridin-2,6-diamine], the values for the MIC in assay [1] and in assay [2] were 0.78 µg/mL (≈ 2.09 µM) and 1.56 µg/mL (≈ 4.19 µM), respectively.
For `Nc1ccc(-c2cnn(Cc3ccc(Oc4ccccc4)nc3)c2)c(N)n1` [Example 200, 3-(1-(6-Phenoxy-pyridin-3-ylmethyl)-1H-pyrazol-4-yl)-pyridin-2,6-diamine], in that order: 3.13 µg/mL (≈ 8.73 µM) and 3.13 µg/mL (≈ 8.73 µM).
The corresponding values for `Nc1ncccc1-c1cc(Cc2cccc(-c3ccccn3)c2)no1` [Example 84, 3-(3-(3-Pyridin-2-yl-benzyl)-isoxazol-5-yl)-pyridin-2-ylamine] are 3.13 µg/mL (≈ 9.53 µM) and above 25 µg/mL.
For `Nc1ccc(-c2cc(Cc3ccc(Oc4ccccc4F)cc3)no2)c(N)n1` [Example 144, 3-(3-(4-(2-Fluoro-phenoxy)-benzyl)-isoxazol-5-yl)-pyridin-2,6-diamine], in that order: 0.39 µg/mL (≈ 1.04 µM) and 0.2 µg/mL (≈ 0.531 µM).
As to `Nc1ccc(-c2cc(Cc3ccc(OCc4ccsc4)cc3)no2)c(N)n1` [Example 136, 3-(3-(4-(Thiophen-3-ylmethoxy)-benzyl)-isoxazol-5-yl)-pyridin-2,6-diamine], the MIC in assay [1] and in assay [2] was 0.2 µg/mL (≈ 0.528 µM) each time.
As to `Nc1ccc(-c2cc(Cc3ccc(OCc4ccccc4F)cc3)no2)c(N)n1` [Example 18, 3-(3-(4-(2-Fluoro-benzyloxy)-benzyl)-isoxazol-5-yl)-pyridin-2,6-diamine], the MIC in assay [1] was found to be 1.56 µg/mL (≈ 4 µM); in assay [2], 0.78 µg/mL (≈ 2 µM).
Turning to `Nc1ncccc1-c1cc(Cc2ccc(CCc3ccco3)cc2)no1` [Example 80, 3-(3-(4-(2-Furan-2-yl-ethyl)-benzyl)-isoxazol-5-yl)-pyridin-2-ylamine], the MIC in assay [1] turned out to be 0.2 µg/mL (≈ 0.579 µM); in assay [2], 0.78 µg/mL (≈ 2.26 µM).
For `Cc1ccc(Cc2ccc(Cc3cc(-c4ccc(N)nc4N)on3)s2)cc1` [Example 156, 3-(3-(5-(4-Methyl-benzyl)-thiophen-2-ylmethyl)-isoxazol-5-yl)-pyridin-2,6-diamine], in that order: 0.2 µg/mL (≈ 0.531 µM) and 0.2 µg/mL (≈ 0.531 µM).
